Biological target: T1, ΔF508-CFTR (Homo sapiens, UniProt P13569, DEL508-508)
T1 construct: expressed in transfected cells
Assay: Membrane potential optical assay for ΔF508-CFTR correction (single-addition HTS format)
Assay type: cell-based
Conditions: NIH3T3 mouse fibroblasts stably expressing ΔF508-CFTR; 16-24 hrs with compound; activation with 10 μM forskolin and 20 μM genistein; read-out: BinnedMaxEfficacy (PercentActivity)
From the text: Membrane potential optical methods for assaying ΔF508-CFTR modulation properties of compounds.
The assay utilizes fluorescent voltage sensing dyes to measure changes in membrane potential using a fluorescent plate reader (e.g., FLIPR III, Molecular Devices, Inc.) as a readout for increase in functional ΔF508-CFTR in NIH 3T3 cells. The driving force for the response is the creation of a chloride ion gradient in conjunction with channel activation by a single liquid addition step after the cells have previously been treated with compounds and subsequently loaded with a voltage sensing dye.
To identify small molecules that correct the trafficking defect associated with ΔF508-CFTR; a single-addition HTS assay format was developed. Assay Plates containing cells are incubated for ˜2-4 hours in tissue culture incubator at 37° C., 5% CO2, 90% humidity. Cells are then ready for compound exposure after adhering to the bottom of the assay plates.
The cells were incubated in serum-free medium for 16-24 hrs in tissue culture incubator at 37° C., 5% CO2, 90% humidity in the presence or absence (negative control) of test compound. The cells were subsequently rinsed 3× with Krebs Ringers solution and loaded with a voltage sensing redistribution dye. To activate ΔF508-CFTR, 10 μM forskolin and the CFTR potentiator, genistein (20 μM), were added along with Cl^−-free medium to each well. The addition of Cl^−-free medium promoted Cl^− efflux in response to ΔF508-CFTR activation and the resulting membrane depolarization was optically monitored using voltage sensor dyes.
Bath Solution #1: (in mM) NaCl 160, KCl 4.5, CaCl2 2, MgCl2 1, HEPES 10, pH 7.4 with NaOH.
Chloride-free bath solution: Chloride salts in Bath Solution #1 are substituted with gluconate salts.
NIH3T3 mouse fibroblasts stably expressing ΔF508-CFTR are used for optical measurements of membrane potential. The cells are maintained at 37° C. in 5% CO2 and 90% humidity in Dulbecco's modified Eagle's medium supplemented with 2 mM glutamine, 10% fetal bovine serum, 1×NEAA, β-ME, 1× pen/strep, and 25 mM HEPES in 175 cm^2 culture flasks. For all optical assays, the cells were seeded at ˜20,000/well in 384-well matrigel-coated plates and cultured for 2 hrs at 37° C. before culturing at 27° C. for 24 hrs. for the potentiator assay. For the correction assays, the cells are cultured at 27° C. or 37° C. with and without compounds for 16-24 hours.

T1 sequence (P13569 with tags, fused parts or gaps DEL508-508): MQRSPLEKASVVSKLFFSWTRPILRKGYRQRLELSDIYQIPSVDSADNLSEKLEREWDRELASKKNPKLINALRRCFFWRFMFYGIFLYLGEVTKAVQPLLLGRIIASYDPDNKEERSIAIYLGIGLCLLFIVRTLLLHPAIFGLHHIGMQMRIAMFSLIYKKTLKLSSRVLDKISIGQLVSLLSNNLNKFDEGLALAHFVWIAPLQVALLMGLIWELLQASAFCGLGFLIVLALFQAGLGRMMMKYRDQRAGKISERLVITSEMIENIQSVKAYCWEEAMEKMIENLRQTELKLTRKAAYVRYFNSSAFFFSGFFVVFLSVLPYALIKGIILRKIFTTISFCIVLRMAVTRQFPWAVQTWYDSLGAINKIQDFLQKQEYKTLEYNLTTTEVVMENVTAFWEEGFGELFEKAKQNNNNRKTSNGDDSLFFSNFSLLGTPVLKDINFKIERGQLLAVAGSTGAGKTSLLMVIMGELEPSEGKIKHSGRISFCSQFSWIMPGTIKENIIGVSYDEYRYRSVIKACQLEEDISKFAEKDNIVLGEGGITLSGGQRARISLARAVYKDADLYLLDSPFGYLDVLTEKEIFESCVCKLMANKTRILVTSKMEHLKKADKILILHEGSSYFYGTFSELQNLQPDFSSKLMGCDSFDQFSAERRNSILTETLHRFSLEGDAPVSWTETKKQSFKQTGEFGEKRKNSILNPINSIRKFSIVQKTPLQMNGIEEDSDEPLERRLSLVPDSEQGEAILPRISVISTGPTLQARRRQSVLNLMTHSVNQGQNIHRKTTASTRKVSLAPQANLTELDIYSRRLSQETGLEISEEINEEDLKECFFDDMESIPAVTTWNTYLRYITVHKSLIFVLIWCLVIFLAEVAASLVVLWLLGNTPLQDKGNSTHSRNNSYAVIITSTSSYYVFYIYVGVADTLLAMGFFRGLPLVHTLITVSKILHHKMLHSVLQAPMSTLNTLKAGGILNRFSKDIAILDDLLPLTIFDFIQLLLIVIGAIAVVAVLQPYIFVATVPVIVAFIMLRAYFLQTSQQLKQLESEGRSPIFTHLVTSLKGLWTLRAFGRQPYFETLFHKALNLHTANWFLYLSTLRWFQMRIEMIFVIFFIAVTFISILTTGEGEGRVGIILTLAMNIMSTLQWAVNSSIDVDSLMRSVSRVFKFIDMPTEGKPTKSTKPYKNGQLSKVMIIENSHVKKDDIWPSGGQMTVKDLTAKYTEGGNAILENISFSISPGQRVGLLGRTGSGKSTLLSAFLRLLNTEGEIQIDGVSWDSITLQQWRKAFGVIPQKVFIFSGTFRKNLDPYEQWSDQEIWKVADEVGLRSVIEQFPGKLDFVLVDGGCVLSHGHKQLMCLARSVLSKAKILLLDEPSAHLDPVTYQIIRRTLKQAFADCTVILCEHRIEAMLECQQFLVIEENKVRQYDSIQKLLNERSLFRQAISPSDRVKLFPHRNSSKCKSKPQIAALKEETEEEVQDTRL

Structure (SMILES) | Emax
COc1cc(NC(=O)C2(c3ccc4c(c3)OCO4)CC2)nc(OC)n1 [Compound 22, 1-(benzo[d][1,3]dioxol-5-yl)-N-(2,6-dimethoxypyrimidin-4-yl)cyclopropanecarboxamide] | > 100%
CNS(=O)(=O)c1ccc(-c2cc(NC(=O)C3(c4ccc5c(c4)OCO5)CC3)cnc2C)cc1 [Compound 30, 1-(benzo[d][1,3]dioxol-5-yl)-N-(6-methyl-5-(4-(N-methylsulfamoyl)phenyl)pyridin-3-yl)cyclopropanecarboxamide] | > 100%

Second part, the molecule after the results:

Emax | Structure (SMILES)
25 to 100% | COc1ccc(-c2nc(NC(=O)C3(c4ccc5c(c4)OC(F)(F)O5)CC3)ncc2C)cn1 [Compound 10, 1-(2,2-difluorobenzo[d][1,3]dioxol-5-yl)-N-(4-(6-methoxypyridin-3-yl)-5-methylpyrimidin-2-yl)cyclopropanecarboxamide]
25 to 100% | Cc1ncc(NC(=O)C2(c3ccc4c(c3)OCO4)CC2)cc1-c1cccc(S(N)(=O)=O)c1 [Compound 20, 1-(benzo[d][1,3]dioxol-5-yl)-N-(6-methyl-5-(3-sulfamoylphenyl)pyridin-3-yl)cyclopropanecarboxamide]
25 to 100% | Cc1cccc(Oc2ccc(NC(=O)C3(c4ccc5c(c4)OCO5)CC3)cn2)c1C [Compound 26, 1-(benzo[d][1,3]dioxol-5-yl)-N-(6-(2,3-dimethylphenoxy)pyridin-3-yl)cyclopropanecarboxamide]
